Experimental data taken from ChEMBL document CHEMBL1127201, “Biological activity of 3-aminopropyl (methyl) phosphinic acid, a potent and selective GABAB agonist with CNS activity” (Bioorg Med Chem Lett, 1993).
pIC50: −log10 of the molar value.

The compounds below were run against GABA B receptor (Rattus norvegicus, UniProt O88871+Q9Z0U4) (assay: In vitro displacement of [3H]GABA from Gamma-aminobutyric acid type B receptor sites in rat brain membranes).
Assay type: cell membranes

Sequence of GABA B receptor (Q9Z0U4 whole entry): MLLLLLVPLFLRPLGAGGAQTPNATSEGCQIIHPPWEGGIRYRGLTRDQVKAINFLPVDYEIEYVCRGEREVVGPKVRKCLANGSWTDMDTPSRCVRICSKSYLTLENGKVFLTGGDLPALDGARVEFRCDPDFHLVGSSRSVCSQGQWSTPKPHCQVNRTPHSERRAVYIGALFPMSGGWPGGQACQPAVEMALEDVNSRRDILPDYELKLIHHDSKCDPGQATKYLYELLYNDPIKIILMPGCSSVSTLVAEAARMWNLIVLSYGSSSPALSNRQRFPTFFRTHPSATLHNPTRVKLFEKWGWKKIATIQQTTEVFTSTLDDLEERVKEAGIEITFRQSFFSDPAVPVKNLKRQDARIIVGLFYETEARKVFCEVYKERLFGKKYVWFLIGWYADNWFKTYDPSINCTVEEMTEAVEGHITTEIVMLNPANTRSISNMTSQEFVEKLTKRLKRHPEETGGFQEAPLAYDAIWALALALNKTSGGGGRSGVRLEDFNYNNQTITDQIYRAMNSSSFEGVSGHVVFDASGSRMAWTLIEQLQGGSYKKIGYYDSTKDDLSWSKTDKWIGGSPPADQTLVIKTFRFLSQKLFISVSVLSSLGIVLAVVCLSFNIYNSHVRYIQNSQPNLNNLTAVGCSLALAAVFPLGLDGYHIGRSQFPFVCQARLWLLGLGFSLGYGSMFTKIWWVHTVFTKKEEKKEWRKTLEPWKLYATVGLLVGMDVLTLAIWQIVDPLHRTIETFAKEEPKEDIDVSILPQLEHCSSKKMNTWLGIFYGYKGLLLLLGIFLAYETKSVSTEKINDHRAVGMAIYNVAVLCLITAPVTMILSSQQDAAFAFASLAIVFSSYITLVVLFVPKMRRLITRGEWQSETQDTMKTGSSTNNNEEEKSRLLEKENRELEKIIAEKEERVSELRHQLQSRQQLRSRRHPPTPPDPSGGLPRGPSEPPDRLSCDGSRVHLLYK
Sequence of GABA B receptor (O88871 whole entry): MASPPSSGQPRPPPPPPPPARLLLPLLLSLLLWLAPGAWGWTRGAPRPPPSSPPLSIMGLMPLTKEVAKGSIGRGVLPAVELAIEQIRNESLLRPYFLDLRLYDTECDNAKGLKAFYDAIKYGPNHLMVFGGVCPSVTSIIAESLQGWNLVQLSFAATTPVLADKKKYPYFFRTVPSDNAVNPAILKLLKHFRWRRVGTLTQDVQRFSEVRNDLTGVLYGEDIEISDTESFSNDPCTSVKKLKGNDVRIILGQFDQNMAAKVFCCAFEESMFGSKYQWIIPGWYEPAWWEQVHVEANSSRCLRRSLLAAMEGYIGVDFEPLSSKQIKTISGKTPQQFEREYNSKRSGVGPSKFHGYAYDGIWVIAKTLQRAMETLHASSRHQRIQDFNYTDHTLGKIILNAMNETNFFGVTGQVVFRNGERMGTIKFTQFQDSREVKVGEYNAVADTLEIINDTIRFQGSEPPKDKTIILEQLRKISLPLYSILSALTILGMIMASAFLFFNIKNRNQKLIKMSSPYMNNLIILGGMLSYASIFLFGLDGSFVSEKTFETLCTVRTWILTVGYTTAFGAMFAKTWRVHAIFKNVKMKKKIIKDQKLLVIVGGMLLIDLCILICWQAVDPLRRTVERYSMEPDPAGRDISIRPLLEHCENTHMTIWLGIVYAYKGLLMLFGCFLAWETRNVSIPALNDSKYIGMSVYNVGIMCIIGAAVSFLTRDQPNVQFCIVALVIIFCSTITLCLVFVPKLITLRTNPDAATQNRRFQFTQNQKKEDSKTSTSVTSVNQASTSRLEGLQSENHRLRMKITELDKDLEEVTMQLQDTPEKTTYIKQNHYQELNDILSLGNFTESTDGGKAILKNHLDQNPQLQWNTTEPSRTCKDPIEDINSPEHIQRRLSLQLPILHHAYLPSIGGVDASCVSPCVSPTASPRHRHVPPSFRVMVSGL

Structure (SMILES) | pIC50
NCCCP(=O)(O)O | 5.70
NCCC[PH](=O)O | 8.52
CCP(=O)(O)CCCN | 5.52
NCCCS(=O)(=O)O [TRAMIPROSATE] | 5.70
NCCOP(=O)(O)O [PHOSPHORYLETHANOLAMINE] | < 4.00
NCCOS(=O)(=O)O | < 4.00
CCOC(OCC)P(=O)(O)CCCN | 5.60
CCCCCCP(=O)(O)CCCN | 6.00
